Results as given in ChEMBL document CHEMBL5113475, “10-Alkoxy-anthracenyl-isoxazole analogs have sub-micromolar activity against a Glioblastoma multiforme cell line” (Bioorg Med Chem, 2022).
The source made the active and inactive calls. The calls are words filed in the database; no cut-off is given here.

What was measured:
SNB-19 = experiment: Antitumor activity against human SNB-19 cells assessed as cell growth inhibition measured after 24 hrs by MTT colorimetric assay; type: functional, cell-based; conditions: SNB-19, 24 h
Quadruplex DNA = experiment: Stabilization of c-Myc G-quadruplex DNA (unknown origin ) assessed as increase in melting temperature at 2 equivalent by CD spectroscopy; type: nucleic-acid assay; conditions: dose 2.0 equiv

| Activity (Quadruplex DNA) | Compound | IC50 (SNB-19) [µM] |
| --- | --- | --- |
| – | COc1c2ccccc2c(-c2noc(C)c2C(=O)Nc2cc(C(=O)N(CCCN(C)C)CCCN(C)C)n(C)c2)c2ccccc12 | 7.77 |
| – | COc1ccc2c(OC)c3ccccc3c(-c3noc(C)c3C(=O)Nc3cc(C(=O)N(CCCN(C)C)CCCN(C)C)n(C)c3)c2c1 | 4.8 |
| – | Cc1onc(-c2c3ccccc3c(Oc3ccc4ccccc4c3)c3ccccc23)c1C(=O)Nc1cc(C(=O)N(CCCN(C)C)CCCN(C)C)n(C)c1 | 3.1 |
| – | Cc1onc(-c2c3ccccc3c(Oc3cccc4ccccc34)c3ccccc23)c1C(=O)Nc1cc(C(=O)N(CCCN(C)C)CCCN(C)C)n(C)c1 | 1.07 |
| Active | Cc1onc(-c2c3ccccc3c(Oc3ccc(-c4ccccc4)cc3)c3ccccc23)c1C(=O)Nc1cc(C(=O)N(CCCN(C)C)CCCN(C)C)n(C)c1 | 0.58 |
| – | Cc1onc(-c2c3ccccc3c(Oc3ccccc3)c3ccccc23)c1C(=O)Nc1cc(C(=O)N(CCCN(C)C)CCCN(C)C)n(C)c1 | 1.03 |
| – | COc1ccc2c(OC)c3ccccc3c(-c3noc(C)c3C(=O)Nc3cc(C(=O)N(CCCN(C)C)CCCN(C)C)n(C)c3)c2c1Cl | 12.6 |
